Assays:
[1] = tested on: neutrophils; assay: Quantitative binding of radioiodinated DBP to neutrophils; design: species or system human; conditions: DBP saturated with the ligand; 100 nM 125I-DBP, 37° C. 60 min
Protocol: Quantitative binding of radioiodinated DBP to neutrophils Purified DBP (200-400 μg) was iodinated using Na-^125I (Dupont-NEN, Wilmington, Del.) as previously described (DiMartino and Kew, 1999). Neutrophils (10^7 cells/sample) were incubated with 100 nM ^125I-DBP in Hank's balanced salt solution (HBSS) containing 0.1% bovine serum albumin (BSA) (assay buffer) in a total volume of 100 μl. Samples were incubated at 37° C. for 60 min after which cells were placed on ice and then washed twice with ice-cold assay buffer (1.0 ml each) and centrifuged for 7 min at 200× g at 2° C. The cell pellets were then counted for total radioactivity in a gamma counter. All samples were assayed in triplicate or quadruplicate.

[2] = tested on: Alkaline phosphatase activity on the plasma membrane of viable neutrophils; assay: Neutrophil alkaline phosphatase assay (DiFMUP); type: cell-based, human; conditions: 5×10^6 cells pretreated with 10 nM 1,25(OH)2D3 or 10 μM SOV; untreated 11,107±1335 units
Protocol: Neutrophil alkaline phosphatase assay Alkaline phosphatase activity on the plasma membrane of viable neutrophils was measured using the fluorescent substrate 6,8-difluoro-4-methylumbelliferyl phosphate (DiFMUP) and the EnzChek Phosphatase Assay Kit (Molecular Probes, Eugene, Oreg.). Neutrophils (5×10^6 cells) were suspended in 50 μl of 0.1M sodium acetate (pH 5.0) and were immediately added to microtiter plates containing 50 μl of 0.2mM DiFMUP substrate and incubated for 5 min at 22° C. in the dark. A standard curve was generated using known amounts of the fluorescent compound 6,8-difluoro-7-hydroxy-4-methylcoumarin. Fluorescence was measured at 358 nm excitation and 455 nm emission using a SpectraMax M2 microtiter plate reader (Molecular Devices, Sunnydale, Calif.).

[3] = tested on: neutrophils; assay: Neutrophil chemotaxis assay, C5a co-chemotactic activity of DBP; type: cell-based, human
From the text: Isolation of human neutrophils Neutrophils, serum, and plasma were isolated from the venous blood of healthy, medication-free, paid volunteers who gave informed consent. The Institutional Review Board of Stony Brook University approved this procedure. These procedures have been described in detail previously (Kew et al., 1995a).
Neutrophil chemotaxis assay Cell movement was quantitated using a 48 well microchemotaxis chamber (Neuroprobe, Cabin John, Md.) and 5.0 μm pore size cellulose nitrate filters (purchased from Neuroprobe) as previously described (Kew et al., 1995a). Cell suspensions and chemotactic factors were prepared and/or diluted in the chemotaxis assay buffer (Hank's balanced salt solution supplemented with 10 mM HEPES (pH 7.4) and 1% bovine serum albumin). Cell movement was quantitated microscopically by measuring the distance in microns (μm) that the leading front of cells had migrated into the filter according to the method described by Zigmond and Hirsch (1973). In each experiment, five fields per duplicate filter were measured at 400× magnification.

[4] = tested on: U937-C5aR cells; assay: Chemotaxis assay, U937-C5aR cells; type: cell-based, human; conditions: Example 6
Protocol: Neutrophils (4×10^6/ml) or U937-C5aR cells (6×10^6/ml) in chemotaxis buffer were treated for 15 min at 22° C. with 20 μg/ml of anti-CD36, anti-CD47 or anti-gC1qR. Cells were then allowed to respond to either 2.5% complement-activated serum (ZAS) or 1 nM purified C5a for 120 min (FIG. 14A. U937-C5aR cells) or 25 min (Panel B. neutrophils) at 37° C. Numbers represent mean±SEM, n=4.
U937 cells were originally obtained from the American Type Culture Collection and transfected with either the human C5a receptor or the empty plasmid vector as detailed previously (16). U937 cells were cultured at 37° C., 5% CO2 in RPMI 1640 containing 10% FBS (HyClone) and […] active G418 (Invitrogen Life Technologies) and maintained at a density between 2×10^5 and 1.5×10^6/ml.
Serum and citrated plasma (1 ml each) were incubated for 1 h at 37° C. with 10 mg of zymosan. Particulate matter was removed by centrifugation (15,000× g) for 5 min at 4° C. using a microfuge. Samples were then aliquoted and frozen at −20° C.
Cell movement was quantitated using a 48-well microchemotaxis chamber (NeuroProbe) and 5.0-μm pore size cellulose nitrate filters (purchased from NeuroProbe) as previously described (13). Cell movement was quantitated microscopically by measuring the distance in micrometers that the leading front of cells had migrated into the filter according to the method described by Zigmond and Hirsch (17). In each experiment, five fields per duplicate filter were measured at ×400 magnification. The value of the background controls for random cell movement (cells responding to buffer) has been subtracted in all cases so that the data are presented as net movement in micrometers.

[5] = tested on: differentiated HL-60 cells; assay: Ligand-induced calcium mobilization (Fluo-3 AM) in differentiated HL-60 cells; type: cell-based, Human; conditions: differentiated HL-60 cells incubated 30 min with 50 nM of indicated DBP, then C5a
Protocol: (§1) Cells and cell culture: Human promyelocytic cell line HL-60 was obtained from ATCC (Rockville, Md.) and cultured in RPMI 1640 medium supplemented with 10% FBS. Differentiation of HL-60 cells was initiated with 250 μM Bt2cAMP for 48 hours.
Ligand-induced calcium mobilization. Calcium mobilization studies were performed using the Fluo-3 AM probe as described previously (see Merritt, J. E. et al., Biochem. J. 269, 513-519 (1990)). Differentiated HL-60 cells (1×10^7 cells/ml) were resuspended in HBSS-1% BSA containing 2 μM Fluo-3 AM (Molecular Probes, Eugene, Oreg.) and incubated at 37° C. for 40 minutes. Cells incubated without the dye were used as a control to measure autofluorescence (Fmin). Following the dye uptake, cells were washed twice then suspended at 5×10^6 cells/ml in HBSS containing 1% BSA. Half of the cell suspension was treated with 50 nM DBP for 30 min at room temperature, the other half served as the untreated control. For each measurement, 400 μl of cell suspension (with or without DBP) was added to a cuvette and stimulated with various concentrations of purified C5a at room temperature (22-24° C.). Fluorescence was then measured immediately using a Perkin-Elmer LS-5 fluorometer at 505 nm excitation, 526 nm emission for Fluo-3 AM. Fmax was measured by treating labeled cells with 60 μM digitonin. Intracellular free calcium concentrations were calculated using the following formula: (Ca^2+)=Kd (F−Fmin)/(Fmax−F), where Kd=325 nM for Fluo-3 according to manufacturer (Molecular Probes).

[6] = tested on: differentiated HL-60 cells; assay: Chemotaxis assay, differentiated HL-60 cells responding to C5a, C5a plus DBP or ZAS; type: cell-based, Human; conditions: differentiated HL-60 cells; 100 pM C5a (FIG. 1: 25-200 pM) plus 50 nM of indicated DBP, 60 min at 37° C
Protocol: Cells (6×10^6/ml) were resuspended in chemotaxis buffer and treated either with chemotaxis buffer (control), 1 μM of peptide 1 (130-152), or 1 μM of peptide 2 (150-172) for 30 min at room temperature. The chemotactic response of differentiated HL-60 cells to 100 pM C5a alone, C5a plus 50 nM full-length natural DBP or 1% zymosan-activated serum (ZAS) was measured for 60 minutes at 37° C. Numbers represent net cell movement in 60 min, mean±SEM of 3 experiments.
as §1
Chemotaxis assay. Chemotaxis was performed as described previously (see Kew, R. R. et al., J. Leukoc. Biol. 58, 55-58 (1995)). In brief, 35 μl of C5a (0.01 to 1 nM) in the chemotaxis buffer (HBSS with 1% BSA, 10 mM HEPES) were placed in duplicate in the lower chamber of a 48-well chamber (Neuroprobe, Md.). The lower compartments were covered with a 5 μm pore cellulose nitrate filter and then 50 μl of the cell suspension (2.5×10^5/well) was pipetted into the upper compartments. The chemotactic chamber was incubated for 1 hour at 37° C. in a humidified incubator with 5% CO2. Following incubation, the filter was fixed, stained and mounted on a microscope slide. Cell movement was measured as the distance in microns that the leading front of the cells had migrated into the filter (see Zigmond, S. et al., J. Exp. Med. 137, 387 (1973)).

[7] = tested on: U937-C5aR cells; assay: C5a-induced intracellular calcium mobilization in U937-C5aR cells; type: cell-based, human; conditions: FIG. 11B, 12; 0.5 μM DBP peptide, 50 nM DBP, 0.1 nM C5a
Protocol: FIG. 11A and FIG. 11B show the effect of DBP on C5a-induced intracellular calcium mobilization in U937-C5aR cells. U937-C5aR cells (10^7 cells/ml) were resuspended in HBSS-1% BSA containing 2 μM Fluo-3 AM and incubated at 37° C. for 40 minutes. Cells incubated without the dye were used as a control to measure autofluorescence (Fmin). Following the dye uptake, cells were washed twice then suspended at 5×10^6 cells/ml in HBSS containing 1% BSA. For the pretreatment experiments, cells were incubated for 30 min at 22° C. with 50 nM DBP or 0.5 μM DBP peptide 1 (p1). For each measurement, 400 μl of cell suspension was added to a cuvette and stimulated with the indicated concentration of C5a (FIG. 11A) or 0.1 nM C5a (FIG. 11B). Fluorescence was then measured immediately using a Perkin-Elmer LS-5 fluorometer at 505 nm excitation, 526 nm emission for Fluo-3 AM. Fmax was measured by treating labeled cells with 60 μM digitonin. Intracellular free calcium concentrations were calculated using the following formula: (Ca^2+)=Kd (F−Fmin)/(Fmax−F), where Kd=325 nM for Fluo-3 according to manufacturer (Molecular Probes). Data are presented as mean±SEM (n=4-6) of the increase in intracellular calcium concentration.
U937-C5aR cells (10^7 cells/ml) were resuspended in HBSS-1% BSA containing 2 μM Fluo-3 AM and incubated at 37° C. for 40 minutes. Cells incubated without the dye were used as a control to measure autofluorescence (Fmin). Following the dye uptake, cells were washed twice then suspended at 5×10^6 cells/ml in HBSS containing 1% BSA. Cells were incubated for 30 min at 22° C. with either 50 nM DBP or 0.5 μM DBP peptide. For each measurement, 400 μl of cell suspension was added to a cuvette and stimulated with 0.1 nM purified C5a. Fluorescence was then measured immediately using a Perkin-Elmer LS-5 fluorometer at 505 nm excitation, 526 nm emission for Fluo-3 AM. Fmax was measured by treating labeled cells with 60 μM digitonin. Intracellular free calcium concentrations were calculated using the following formula: (Ca2+)=Kd (F−Fmin)/(Fmax−F), where Kd=325 nM for Fluo-3 according to manufacturer (Molecular Probes)

| Compound | enhancement of intracellular Ca2+ flux in response to C5a [5] | enhancement of C5a-mediated chemotaxis (net cell movement) [6] | other results |
| --- | --- | --- | --- |
| C=C1/C(=C\C=C2/CCC[C@]3(C)[C@@H]([C@H](C)CCCC(C)(C)O)CC[C@@H]23)C[C@@H](O)C[C@@H]1O [1,25(OH)2D3, 1,25(OH)2 Vitamin D3] | – | – | effect on binding of 125I-DBP to neutrophils [1]: did not alter DBP binding to neutrophils; neutrophil AP activity [2]: not significantly altered; neutrophil chemotaxis to optimal concentrations of C5a, formyl peptide, LTB4 or CXCL8 (IL-8) ([3]; 10 nM bound to DBP): does not alter neutrophil chemotaxis; effect on co-chemotactic activity of DBP (neutrophil chemotaxis toward C5a) ([3]; ligand bound to DBP, 1,25(OH)2D3 100 nM): completely eliminated the co-chemotactic effect |
| [O-][Cl+2]([O-])O [chlorate, sodium chlorate] | – | – | U937-C5aR chemotaxis to C-activated plasma ([4]; 2.5% C-activated plasma): not; U937-C5aR chemotaxis to C-activated serum ([4]; 2.5% C-activated serum): significantly reduces; U937-C5aR chemotaxis to 1 nM purified C5a (net movement) ([4]; treated cells, DBP-independent): 56+/−4.8 μm/120 min |
| (1-112): truncated version of DBP domain I expressed in E. coli (LERGRDYEKNKVCKEFSHLGKEDFTSLSLVLYSRKFPSGT) | lack enhancing activity | lack enhancing activity | – |
| (1-125): truncated version of DBP domain I expressed in E. coli (LERGRDYEKNKVCKEFSHLGKEDFTSLSLVLYSRKFPSGT) | lack enhancing activity | lack enhancing activity | – |
| (1-150): truncated version of DBP domain I expressed in E. coli (LERGRDYEKNKVCKEFSHLGKEDFTSLSLVLYSRKFPSGT) | almost the same level of activity as full-length natural DBP | almost the same level of activity as full-length natural DBP | – |
| (1-175): truncated version of DBP domain I expressed in E. coli (LERGRDYEKNKVCKEFSHLGKEDFTSLSLVLYSRKFPSGT) | almost the same level of activity as full-length natural DBP | almost the same level of activity as full-length natural DBP | – |
| EAFRKDPKEYAN [peptide 3, DBP residues 130-141] | – | – | block of the DBP-enhanced C5a calcium signal [7]: partially block |
| Vitamin D | – | – | effect on binding of 125I-DBP to neutrophils [1]: does not alter its ability to bind to neutrophils |
| domain I & II: truncated reDBP, residues 1-378 (LERGRDYEKNKVCKEFSHLGKEDFTSLSLVLYSRKFPSGT) | significantly enhanced | significantly enhanced | – |
| domain I: truncated reDBP, residues 1-191 (EAFRKDPKEYANQFMWEYST) | significantly enhanced | significantly enhanced | – |
| peptide 5: DBP residues #135-146, printed as SEQ ID NO: 10; residues match the sequence of SEQ ID NO: 9 (NQFMWEYSTNYG) | – | – | block of the DBP-enhanced C5a calcium signal [7]: partially block |

Reference: patent publication US7547676B2, “Antagonist peptides to the C5A chemotactic function of vitamin D binding protein” (The Research Foundation of State University of New York, priority 2004, dated 2009)
